In patent publication US10035760B2, “Inhibitors of human immunodeficiency virus replication” (priority 2013, dated 2018):
Where two headings read alike, the source gives them in different places.

System: recombinant NL4-3 virus (Renilla luciferase) in MT-2 cells
Experiment: HIV cell culture assay (antiviral activity, luciferase readout in infected MT-2 cells)
Format: cell-based
Settings: Renilla
Method in brief: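 Nef-deleted NL4-3 carrying Renilla luciferase, produced by 293T transfection, used to infect MT-2 cells for 4–5 days with serial compound dilutions. Live-cell luciferase signal read as infection marker; EC50 from exponential median-effect equation.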

[1] = NL43, read-out: Activity, antiviral activity class, recombinant NL4-3 Renilla luciferase virus in MT-2 cells
[2] = NL43, recombinant NL4-3 Renilla luciferase virus in MT-2 cells

Structure (SMILES): Cc1ccccc1S(=O)(=O)NC(=O)N[C@@H](Cc1ccccc1)C(=O)N1CCC1 [Example 188, (S)—N-((1-(azetidin-1-yl)-1-oxo-3-phenylpropan-2-yl)carbamoyl)-2-methylbenzenesulfonamide]
- EC50 [1]: 10 to 100 µM
- EC50 [2]: 27.5 µM

Structure (SMILES): Cc1ccccc1S(=O)(=O)NC(=O)N[C@@H](Cc1ccccc1)C(=O)N1CCCC1c1cccnc1 (stereo partly drawn) [Example 189, 2-methyl-N-(((2S)-1-oxo-3-phenyl-1-(2-(pyridin-3-yl)pyrrolidin-1-yl)propan-2-yl)carbamoyl)benzenesulfonamide]
- EC50 [1]: 1 to 10 µM

Structure (SMILES): COc1ccc(N(C)C(=O)[C@H](Cc2ccccn2)NC(=O)NS(=O)(=O)c2ccccc2C)cc1 [Example 192, (S)—N-(4-methoxyphenyl)-N-methyl-3-(pyridin-2-yl)-2-(3-(o-tolylsulfonyl)ureido)propanamide]
- EC50 [1]: 10 to 100 µM

Structure (SMILES): COc1ccc(N(C)C(=O)[C@H](Cn2cncn2)NC(=O)NS(=O)(=O)c2ccccc2C)cc1 [Example 193, (S)—N-(4-methoxyphenyl)-N-methyl-2-(3-(o-tolylsulfonyl)ureido)-3-(1H-1,2,4-triazol-1-yl)propanamide]
- EC50 [2]: > 100 µM

Structure (SMILES): COc1ccc(N(C)C(=O)[C@H](Cc2cccnc2)NC(=O)NS(=O)(=O)c2ccccc2C)cc1 [Example 194, (S)—N-(4-methoxyphenyl)-N-methyl-3-(pyridin-3-yl)-2-(3-(o-tolylsulfonyl)ureido)propanamide]
- EC50 [1]: 10 to 100 µM

Structure (SMILES): COc1ccc(N(C)C(=O)[C@H](CC2CCCCC2)NC(=O)NS(=O)(=O)c2ccccc2C)cc1 [Example 195, (S)-3-cyclohexyl-N-(4-methoxyphenyl)-N-methyl-2-(3-(o-tolylsulfonyl)ureido)propanamide]
- EC50 [1]: 1 to 10 µM

Structure (SMILES): COc1ccc(N(C)C(=O)[C@H](CC2CCCC2)NC(=O)NS(=O)(=O)c2ccccc2C)cc1 [Example 196, (S)-3-cyclopentyl-N-(4-methoxyphenyl)-N-methyl-2-(3-(o-tolylsulfonyl)ureido)propanamide]
- EC50 [1]: 10 to 100 µM

Structure (SMILES): COc1ccc(N(C)C(=O)[C@@H](NC(=O)NS(=O)(=O)c2ccccc2C)[C@@H](C)c2ccccc2)cc1 [Example 197, (2S,3S)—N-(4-methoxyphenyl)-N-methyl-3-phenyl-2-(3-(o-tolylsulfonyl)ureido)butanamide]
- EC50 [1]: 10 to 100 µM
- EC50 [2]: 11.5 µM

Structure (SMILES): COc1ccc(N(C)C(=O)[C@H](Cc2cccs2)NC(=O)NS(=O)(=O)c2ccccc2C)cc1 [Example 198, (S)—N-(4-methoxyphenyl)-N-methyl-3-(thiophen-2-yl)-2-(3-(o-tolylsulfonyl)ureido)propanamide]
- EC50 [1]: 0.1 to 1 µM
- EC50 [2]: 0.27 µM

Structure (SMILES): COc1ccc(N(C)C(=O)[C@H](Cc2ccncc2)NC(=O)NS(=O)(=O)c2ccccc2C)cc1 [Example 199, (S)—N-(4-methoxyphenyl)-N-methyl-3-(pyridin-4-yl)-2-(3-(o-tolylsulfonyl)ureido)propanamide]
- EC50 [1]: 10 to 100 µM

Structure (SMILES): COc1ccc(N(CC(F)(F)F)C(=O)[C@H](Cc2ccccc2)NC(=O)NS(=O)(=O)c2ccccc2C)cc1 [Example 200, (S)—N-(4-methoxyphenyl)-3-phenyl-2-(3-(o-tolylsulfonyl)ureido)-N-(2,2,2-trifluoroethyl)propanamide]
- EC50 [1]: 0.1 to 1 µM

Structure (SMILES): CCN(C(=O)[C@H](Cc1ccccc1)NC(=O)NS(=O)(=O)c1ccccc1Br)c1ccc(OC)cc1 [Example 201, (S)-2-(3-((2-bromophenyl)sulfonyl)ureido)-N-ethyl-N-(4-methoxyphenyl)-3-phenylpropanamide]
- EC50 [1]: < 0.1 µM

Structure (SMILES): CCN(C(=O)[C@H](Cc1ccccc1)NC(=O)NS(=O)(=O)c1ccc2c(ccn2CC)c1)c1ccc(OC)cc1 [Example 203, (S)—N-ethyl-2-(3-((1-ethyl-1H-indol-5-yl)sulfonyl)ureido)-N-(4-methoxyphenyl)-3-phenylpropanamide]
- EC50 [1]: 0.1 to 1 µM

Structure (SMILES): COc1ccc(N(C)C(=O)[C@H](Cc2cc(F)cc(F)c2)NC(=O)NS(=O)(=O)c2ccccc2F)cc1 [Example 204, (S)-3-(3,5-difluorophenyl)-2-(3-((2-fluorophenyl)sulfonyl)ureido)-N-(4-methoxyphenyl)-N-methylpropanamide]
- EC50 [1]: 0.1 to 1 µM

Structure (SMILES): COc1ccc(N(C)C(=O)[C@H](Cc2cc(F)cc(F)c2)NC(=O)NS(=O)(=O)c2ccccc2C)cc1 [Example 205, (S)-3-(3,5-difluorophenyl)-N-(4-methoxyphenyl)-N-methyl-2-(3-(o-tolylsulfonyl)ureido)propanamide]
- EC50 [1]: 0.1 to 1 µM
- EC50 [2]: 0.11 µM

Structure (SMILES): CN(C(=O)[C@H](Cc1ccccc1)NC(=O)NS(=O)(=O)c1ccccc1Cl)c1ccc2c(c1)CCC2 [Example 206, (S)-2-(3-((2-chlorophenyl)sulfonyl)ureido)-N-(2,3-dihydro-1H-inden-5-yl)-N-methyl-3-phenylpropanamide]
- EC50 [1]: < 0.1 µM

Structure (SMILES): Cc1ccccc1S(=O)(=O)NC(=O)N[C@@H](Cc1ccccc1)C(=O)N(C)c1ccc2c(c1)CCC2 [Example 207, (S)—N-(2,3-dihydro-1H-inden-5-yl)-N-methyl-3-phenyl-2-(3-(o-tolylsulfonyl)ureido)propanamide]
- EC50 [1]: < 0.1 µM

Structure (SMILES): CN(C(=O)[C@H](Cc1ccccc1)NC(=O)NS(=O)(=O)c1ccccc1)c1ccc2c(c1)CCC2 [Example 208, (S)—N-(2,3-dihydro-1H-inden-5-yl)-N-methyl-3-phenyl-2-(3-(phenylsulfonyl)ureido)propanamide]
- EC50 [1]: 0.1 to 1 µM

Structure (SMILES): Cc1ccccc1S(=O)(=O)NC(=O)N[C@@H](CCc1ccccc1)C(=O)N(C)c1ccc2c(c1)OCO2 [Example 209, (S)—N-(benzo[d][1,3]dioxol-5-yl)-N-methyl-4-phenyl-2-(3-(o-tolylsulfonyl)ureido)butanamide]
- EC50 [1]: 10 to 100 µM

Structure (SMILES): Cc1ccccc1S(=O)(=O)NC(=O)N[C@H](CCc1ccccc1)C(=O)N(C)c1ccc2c(c1)OCO2 [Example 210, (R)—N-(benzo[d][1,3]dioxol-5-yl)-N-methyl-4-phenyl-2-(3-(o-tolylsulfonyl)ureido)butanamide]
- EC50 [1]: 10 to 100 µM

Structure (SMILES): C=Cc1cccc(C[C@H](NC(=O)NS(=O)(=O)c2ccccc2C=C)C(=O)N(C)c2ccc(OC)cc2)c1 [Example 212, (S)—N-(4-methoxyphenyl)-N-methyl-3-(3-vinylphenyl)-2-(3-((2-vinylphenyl)sulfonyl)ureido)propanamide]
- EC50 [1]: < 0.1 µM
- EC50 [2]: 0.058 µM

Structure (SMILES): C=CCCOc1cccc(C[C@H](NC(=O)NS(=O)(=O)c2ccccc2C=C)C(=O)N(C)c2ccc(OC)cc2)c1 [Example 213, (S)-3-(3-(but-3-en-1-yloxy)phenyl)-N-(4-methoxyphenyl)-N-methyl-2-(3-((2-vinylphenyl)sulfonyl)ureido)propanamide]
- EC50 [1]: 1 to 10 µM
- EC50 [2]: 5.07 µM

Structure (SMILES): CCN(C(=O)[C@H](Cc1ccccc1)NC(=O)NS(=O)(=O)c1cccc(-c2ccnn2CC(C)C)c1C)c1ccc(OC)cc1 [Example 214, (S)—N-ethyl-2-(3-((3-(1-isobutyl-1H-pyrazol-5-yl)-2-methylphenyl)sulfonyl)ureido)-N-(4-methoxyphenyl)-3-phenylpropanamide]
- EC50 [1]: 0.1 to 1 µM
- EC50 [2]: 0.87 µM

Structure (SMILES): CCc1cccc(C[C@H](NC(=O)NS(=O)(=O)c2ccccc2CC)C(=O)N(C)c2ccc(OC)cc2)c1 [Example 215, (S)-3-(3-ethylphenyl)-2-(3-((2-ethylphenyl)sulfonyl)ureido)-N-(4-methoxyphenyl)-N-methylpropanamide]
- EC50 [1]: 0.1 to 1 µM

Structure (SMILES): C=CCOc1ccc(N(C)C(=O)[C@H](Cc2ccccc2)NC(=O)NS(=O)(=O)c2ccccc2C)cc1 [Example 216, (S)—N-(4-(allyloxy)phenyl)-N-methyl-3-phenyl-2-(3-(o-tolylsulfonyl)ureido)propanamide]
- EC50 [1]: < 0.1 µM
